Assay [1] concerns P. falciparum isolate 6320. As to the kind of experiment: 3-day SYBR Green I GIA, field isolate 6320. Conditions: Plasmodium falciparum; artemisinin- and piperaquine-resistant isolate; read-out: Resistant isolates EC50, 6320. It counts as cell-based. How it is done: (§1) A 3-day SYBR Green I inhibition EC50 assay was performed as described previously. Briefly, highly synchronized ring-stage parasites by 5% sorbitol (1% parasitemia and 2% hematocrit) were incubated in a 96-well plate with compounds in a total volume of 200 μL. […] The parasites were cultured for 72 h before SYBR Green I staining as described above. The EC50 was calculated by GraphPad Prism. DHA was used as a positive control, and the final concentration of DMSO was 1%.

Assay [2] has as its system P. falciparum clinical isolates 6218 and 6320. As to the kind of experiment: Ring-stage survival assay (RSA), isolates 6218 and 6320. Type of assay: cell-based, Plasmodium falciparum. The following applies: 700 nM, isolates 6218 and 6320. On the procedure: An RSA was performed as described previously[65] to evaluate the activity of JX21108 against the artemisinin- and piperaquine-resistant P. falciparum clinical isolates 6218 and 6320[43]. Briefly, parasites were highly synchronized at 0–3 hpi by a 60%/40%-Percoll gradient[66] followed by 5% D-sorbitol[67] treatment after 3 h. The parasite suspension (0.5%–1% parasitemia, 2% hematocrit) was incubated with compounds at 700 nM in a total volume of 2 mL in a 48-well plate for 6 h. After that, the culture mixture was washed three times with 15 mL of CM before another 66 h of cultivation with CM. A Giemsa-stained blood smear was made after cultivation. Parasitemia was counted from at least 10,000 RBCs by microscopy. The survival rate was calculated as the percentage of that in DMSO control. DHA at a concentration of 700 nM served as a positive control.

The test system of assay [3] is P. falciparum 3D7. As to the kind of experiment: Ring-stage survival assay (RSA), sensitive strain 3D7. It counts as cell-based, Plasmodium falciparum. The following applies: 700 nM.
In assay [4] the test system is P. falciparum NF54 stage II gametocytes. The assay is described as follows: In vitro gametocyte inhibition assay, stage II. Type of assay: cell-based, Plasmodium falciparum. Conditions: NF54 luciferase line, 48 h exposure. On the procedure:
To test the activities of JX21108 against different gametocyte stages, the P. falciparum producer NF54^p230p-luc was utilized, as described previously. […] Luciferase intensity based on luciferase expression was detected as described above. The EC50 was calculated by GraphPad Prism. DMSO (1%) was used as a negative control.

The test system of assay [5] is P. falciparum 3D7. As to the kind of experiment: 3-day SYBR Green I growth inhibition assay (GIA), strain 3D7. It counts as cell-based, Plasmodium falciparum. The following applies: 3-day SYBR Green I GIA, drug-sensitive strain 3D7, read-out: Antiplasmodial activity EC50, 3D7. In outline: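 Sorbitol-synchronized ring-stage parasites at 1% parasitemia and 2% hematocrit, cultured 72 h with compounds at 1% DMSO final. Growth read by SYBR Green I staining. EC50 from curve fitting.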

A further assay has as its system 3D7^HDA1-TY1. As to the kind of experiment: Sensitivity of transgenic parasites to JX21108, 3D7^HDA1-TY1. It counts as cell-based. The following applies: Plasmodium falciparum, 3D7, 4 h, read-out: EC50 for 3D7^HDA1-TY1. How it is done:
(§2) Highly synchronized schizont-stage parasites were prepared and treated as described above, with adjustments. […] After washing, parasites were cultured in new CM for another 68 h. Parasite growth was monitored by SYBR Green I staining, as described above. The EC50 was calculated by GraphPad Prism.

The next assay deals with P. falciparum GB4. The assay is described as follows: 3-day SYBR Green I GIA, strain GB4. It counts as cell-based. The following applies: Plasmodium falciparum; GB4 resistant to chloroquine; read-out: Resistant isolates EC50, GB4. On the procedure: as §1
In a further assay the test system is P. yoelii. The assay is described as follows: In vivo blood-stage inhibition assay. More on the design: species or system Plasmodium yoelii in BALB/c mice. On the procedure:
Experiment 1: Five female BALB/c mice (6 weeks, 18 g) from each experimental group were infected with 1 × 10^5 rodent malaria parasite P. yoelii via intraperitoneal (i.p) injection. After 24 h, the mice were treated with 30, 60, or 90 mg/kg/day JX21108 via i.p injection and 20 mg/kg/day piperaquine phosphate (PPQ) as a positive control for 5 days. DMSO (5%) was used as a blank control.
Experiment 2: To analyze the differences in drug potency between racemic and enantiopure forms of JX21108, five female BALB/c mice (6 weeks, 18 g) per group were treated with 60 mg/kg/day (+)-JX21108, (−)-JX21108, or JX21108 as described above. Blood smears were made daily from the blood of veins and stained by Giemsa. Parasitemia was counted from at least 5000 RBCs by microscopy. The bodyweight of the mice and the number of deaths were recorded daily. All the graphs were generated by GraphPad Prism. All experimental procedures followed the National Institutes of Health Guide for the Care and Use of Laboratory Animals, as well as the guidelines of the Animal Welfare and Committee of Institut Pasteur of Shanghai, Chinese Academy of Science, IACUC issue No. A2018009.

Assay [6] has as its system P. berghei-ANKA-GFP-luc sporozoites. As to the kind of experiment: In vivo liver-stage parasite inhibition assay. More on the design: species or system Plasmodium berghei in BALB/c mice. On the procedure:
An in vivo liver-stage parasite inhibition assay was conducted as described previously[68],[69]. Briefly, five female BALB/c mice (6 weeks, 18 g) per group were infected with 5000 P. berghei-ANKA-GFP-luc sporozoites by i.v injection followed immediately by i.v.-administered JX21108 at a single dose of 30 mg/kg or 60 mg/kg (day 0). The β-cyclodextrin was used as a blank control. For fluorescence detection, 3 mg of D-luciferin sodium (Sinochrome BC-220–10) in 100 μL of ddH2O was i.p. injected into each mouse. The fluorescence signals were visualized by an IVIS Lumina series (PerkinElmer) on days 1–4, 6, and 8 after infection. All experimental procedures followed the National Institutes of Health Guide for the Care and Use of Laboratory Animals, as well as the guidelines of the Animal Welfare and Committee of Institut Pasteur of Shanghai, Chinese Academy of Science, IACUC issue No. A2018009.

A further assay concerns 3D7^HDA1-glmS. As to the kind of experiment: Sensitivity of transgenic parasites to JX21108, 3D7^HDA1-glmS. Type of assay: cell-based. Conditions: Plasmodium falciparum, 3D7, 4 h, read-out: EC50 for 3D7^HDA1-glmS. On the procedure: as §2
Assay [7] relates to drug-sensitive and multidrug-resistant strains of P. falciparum. The assay is described as follows: 3-day SYBR Green I GIA, summary over several strains. It counts as cell-based. Conditions: Plasmodium falciparum. On the procedure:
as §1

[8] abbreviates: 30 mg/kg and 60 mg/kg treatment groups, i.p., 5 days.

Read-outs that look alike come from different tables or passages of the source.

As to `Cl.Cn1cc(CN2CCC3(CCN(c4ncc(C(=O)NO)cn4)C3)C2)c2cc(C#N)ccc21` (centres unmarked) [JX21108], the EC50 (commonly the concentration that produces a half-maximal response) in assay [1] came to 2.6 ± 0.2 nM; in assay [4] it was 38.8 ± 17.8 nM; in assay [4] (Plasmodium falciparum, NF54, 48 h) it was 38.8 ± 17.8 nM; with P. falciparum 3D7 [5] it was 3.57 ± 0.06 nM; in the assay with P. falciparum 3D7 [5] (Plasmodium falciparum, 3D7, 72 h), 3.6 nM; in the assay with 3D7^HDA1-TY1, 330 ± 57 nM. Besides, the EC50 in the assay with P. falciparum GB4 was 2.4 ± 0.6 nM; in the assay on 3D7^HDA1-glmS, 210 ± 25 nM; in [7] (three strains tested, read-out: EC50 values on strains GB4, C2A and CP286), 2 to 8 nM; in [7] (variety of geographically representative strains, read-out: EC50 against drug-sensitive and multidrug-resistant strains of P. falciparum) it was 2 to 7 nM. In addition, the “RSA effect on ring-stage parasites” value in assay [2] was “greatly inhibited parasite growth at ring stage of 6218 and 6320”. Also, the “RSA effect on ring-stage parasites of 3D7” value in the assay with P. falciparum 3D7 [3] is “efficiently killed the ring-stage parasites”. Moreover, the “day on which parasites were completely cleaned up” value with P. yoelii (setting [8]) was 17 days. For the same compound, in the assay with P. yoelii (setting [8]), the “day till which parasites were detected” value stood at 8 days. The relapse of malaria entry in the assay on P. yoelii (90 mg/kg treatment group, i.p., 5-day treatment) is given as “no relapse of malaria was observed”. Also, the “survival of infected mice” value in the assay on P. yoelii (JX21108-treated groups 30–90 mg/kg) is given as “all the mice survived”. Also, the “in vivo antiplasmodial activity in P. yoelii-infected mice” value with P. yoelii (all doses tested (30–90 mg/kg), i.p., 5 days) is “strong in vivo antiplasmodial activity”. Also, in assay [6] (single 30 mg/kg dose i.v.), the “effect on liver infection or subsequent blood-stage P. berghei infection” value is on record as “did not produce significant effects”. Besides, the “liver infection (bioluminescence)” value in [6] (single 60 mg/kg dose i.v., 2 dpi) was “did not show signs of liver infection”. The blood-stage infection entry in assay [6] (single 60 mg/kg dose i.v., until 8 dpi) is “nor did the treated mice show any blood-stage infection”.

Values taken from PMC7733455, “A novel multistage antiplasmodial inhibitor targeting Plasmodium falciparum histone deacetylase 1” (Cell Discovery, 2020).
